Measurements published in US10154961B2, “Pomegranate oil for preventing and treating neurodegenerative diseases” (Hadasit Medical Research Services and Development Ltd., priority 2012, dated 2018).

Test system: fibroblast isolated from TgMHu2ME199K mice
Assay type: cell-based

With `CCCC\C=C/C=C/C=C\CCCCCCCC(=O)O` [punicic acid] the “effect on copper toxicity, percentage of cell survival” value was “significantly inhibited the toxic effect of cooper”.
